# Literature values in the PKSmart pharmacokinetics tables (Seal et al. 2025).
# Assay: Lombardo, Berellini, Obach 2018, Drug Metab Dispos 46:1466, doi 10.1124/dmd.118.082966
# Details: human; for MRT / Vd / clearance / half-life: in vivo, iv; for fraction unbound: plasma
SMILES,MRT [h],Vd [L/kg],clearance [mL/min/kg],half-life [h],fraction unbound
O=C(O)CCCC[C@@H]1CCSS1,0.14,0.1,11.5,0.21,
N#Cc1ccc2c(c1)CN(S(=O)(=O)c1cccs1)[C@H](Cc1ccccc1)CN2Cc1cnc[nH]1,1.4,0.84,9.6,1.6,0.01
COc1cc2c(cc1OC)[C@H]1C[C@@H](OC(=O)C(N)C(C)C)[C@H](CC(C)C)CN1CC2 (stereo partly drawn),12.8,1.31,1.71,18,0.01
CN(CC(O)=NO)C(=O)C1CCCCC1C(=O)O (stereo not drawn),2.8,1,6.3,2.6,1
CCc1cc2c(cc1CC)CC(NC[C@H](O)c1ccc(O)c3[nH]c(=O)ccc13)C2,72.4,19.4,4.48,92.5,
CCCCCNC(=N)NN=Cc1c[nH]c2ccc(OC)cc12,4.9,5.3,18,11,
C/C=C(/C)C(=O)O[C@H]1[C@H](OC(C)=O)[C@]2(CO)[C@H](O)C[C@]3(C)C(=CC[C@@H]4[C@@]5(C)CC[C@H](O[C@@H]6OC(C(=O)O)[C@@H](O[C@@H]7O[C@H](CO)[C@@H](O)[C@H](O)[C@H]7O)[C@H](O)[C@H]6O[C@@H]6O[C@H](CO)[C@@H](O)[C@H](O)[C@H]6O)[C@](C)(CO)[C@@H]5CC[C@]43C)[C@@H]2CC1(C)C (stereo partly drawn),1.5,0.23,2.55,1.8,
CO[C@@H]1[C@@H](O[C@@H]2O[C@H](C)[C@@H](O[C@H]3C[C@@](C)(O)[C@@H](O)[C@H](C)O3)[C@H](N(C)C)[C@H]2O)[C@@H](CC=O)C[C@@H](C)[C@@H](O[C@H]2CC[C@@H](N(C)C)[C@H](C)O2)C=CC=CC[C@@H](C)OC(=O)C[C@H]1O,7,,12.8,5.2,0.26
N#C[C@H]1CC2C[C@H]2N1C(=O)C(N)C12CC3CC(CC(O)(C3)C1)C2 (stereo partly drawn),4.1,1.8,7.1,7.5,1
COCCCN1CCC(NC(=O)c2cc(Cl)c(N)c3c2OCC3)CC1,32.2,8.73,4.55,22.5,0.7
Nc1nc2ccc(OC(F)(F)F)cc2s1,5.2,3.5,11.3,,0.04
Cc1cnc(C(=O)NCCc2ccc(S(=O)(=O)NC(=O)NC3CCCCC3)cc2)cn1,4.8,,,,
O=P(O)(O)C(Cl)(Cl)P(=O)(O)O,9.2,0.88,1.6,43.2,0.64
CC1(C)O[C@@H]2C[C@H]3[C@@H]4CC=C5CC(=O)C=C[C@]5(C)[C@@]4(F)[C@@H](O)C[C@]3(C)[C@]2(C(=O)CO)O1,2.5,1.4,9.4,2.4,0.2
COc1c(-c2ccc3cc(NS(C)(=O)=O)ccc3c2)cc(-n2ccc(=O)[nH]c2=O)cc1C(C)(C)C,,2.13,,5.7,0.005
O=[N+]([O-])OCC(CO[N+](=O)[O-])O[N+](=O)[O-],,,194,,
COc1cccc(OC)c1C(=O)NC1C(=O)N2C(C(=O)O)C(C)(C)S[C@H]12 (stereo partly drawn),0.8,0.32,6.6,0.64,0.43
O=S(=O)(Nc1ccccc1)c1cccc(/C=C/C(O)=NO)c1,0.6,0.8,23.6,1.6,0.06
O=P(O)(O)OC(Cn1cncn1)(Cn1cncn1)c1ccc(F)cc1F,2,0.15,1.3,2.1,0.042
Cc1onc(-c2ccccc2)c1C(=O)NC1C(=O)N2C(C(=O)O)C(C)(C)S[C@H]12 (stereo partly drawn),0.5,0.19,6.3,0.7,0.07
CO/N=C1\CN(c2nc3c(cc2F)c(=O)c(C(=O)O)cn3C2CC2)CC1CN (stereo not drawn),8.1,3.52,7.2,8.3,0.3
CN1CCOC(c2ccccc2)c2ccccc2C1 (stereo not drawn),8.1,5.6,12,5,
C[C@@H](O[C@H]1OCCN(Cc2nc(=O)n(P(=O)(O)O)[nH]2)[C@H]1c1ccc(F)cc1)c1cc(C(F)(F)F)cc(C(F)(F)F)c1,0.06,0.07,18.6,2.2,0.02

SMILES,MRT [h],Vd [L/kg],clearance [mL/min/kg],half-life [h],fraction unbound
CC[C@H]1OC(=O)C(C)[C@@H](O[C@H]2C[C@@](C)(OC)[C@@H](O)[C@H](C)O2)[C@H](C)[C@@H](O[C@@H]2O[C@H](C)C[C@H](N(C)C)[C@H]2O)[C@](C)(O)C[C@@H](C)CN(C)[C@H](C)[C@@H](O)[C@]1(C)O (stereo partly drawn),57,33,10,69,
C[C@@H](NCCc1ccc(O)cc1)[C@@H](O)c1ccc(O)cc1,2.4,4.4,31,2.6,0.64
CN(C)c1cc(NC(=O)CNC(C)(C)C)c(O)c2c1C[C@H]1C[C@H]3[C@H](N(C)C)C(O)=C(C(N)=O)C(=O)[C@@]3(O)C(O)=C1C2=O,53,12,3.8,48,0.2
CC[N+](CC)(CC)CCOc1cccc(OCC[N+](CC)(CC)CC)c1OCC[N+](CC)(CC)CC,2.98,0.27,1.51,2.52,
CCCCCCCCCCCCCCC[C@@H](O)[C@H](C)N,8.89,30.7,57.6,29.7,
COc1ccc(CNC[C@@H](O)COc2ccc3[nH]c(=O)ccc3c2)cc1OC,3.2,1.6,8.9,3.3,
COc1cc2c(cc1OC)CC(=O)N(CCCN(C)C[C@H]1Cc3cc(OC)c(OC)cc31)CC2,2.69,1.66,10.3,,0.28
C=CCC1=CC(C)C[C@H](C)C[C@H](OC)[C@H]2O[C@@](O)(C(=O)C(=O)N3CCCCC3C(=O)O[C@H](/C(C)=C/[C@@H]3CC[C@@H](O)[C@H](OC)C3)[C@H](C)[C@@H](O)CC1=O)[C@H](C)C[C@@H]2OC (stereo partly drawn),27,1.2,0.7,26,
NC(=S)NN=Cc1ncccc1N,2.6,0.41,2.65,1.9,
Cc1cc(=O)n(-c2ccccc2)[nH]1,2.65,0.23,1.42,2.36,0.89
Nc1nc2c(Cc3cccnc3)c[nH]c2c(=O)[nH]1,3.2,1.2,6.2,3,0.86
CC(=O)N[C@H]1[C@H]([C@H](O)[C@H](O)CO)OC(C(=O)O)=C[C@@H]1NC(=N)N,2.4,0.23,1.6,1.7,
Nc1nc(=O)c2nc(CNc3ccc(C(=O)NC(CCC(=O)O)C(=O)O)cc3)cnc2[nH]1 (stereo not drawn),3.1,9.7,52,2.6,0.5
C[C@@]12CCCCC[C@@H](Cc3ccc(O)cc31)[C@@H]2N,4.6,5.6,27.5,3.9,0.08
Cc1nc(NNC(=O)C(CC2CCCC2)CN(O)C=O)c(F)c(N2CCN3CCOCC3C2)n1 (stereo not drawn),2.2,0.75,5.6,4.2,
NN=c1cc2c(n[nH]1)CCN(C(=O)c1ccccc1)C2,2.7,2.2,13,5.6,
Nc1nc(=O)c2c([nH]1)NC[C@H](CNc1ccc(C(=O)NC(CCC(=O)O)C(=O)O)cc1)N2C=O (stereo partly drawn),1.1,0.27,4.1,1.1,
C=C(CC(NC(=O)c1ccc(CCc2cnc3nc(N)nc(N)c3n2)cc1)C(=O)O)C(=O)O (stereo not drawn),3.78,0.7,3.08,8.2,
NS(=O)(=O)c1cc(C(=O)O)cc(N2CCCC2)c1Oc1ccccc1,0.91,0.17,3.1,1.3,0.058
O=C(O)C[C@H](O)C[C@H](O)/C=C/c1c(C2CC2)nc2ccccc2c1-c1ccc(F)cc1,2.7,0.9,5.85,4.6,0.005
Oc1cc2cc(CCN3CCN(c4nsc5ccccc45)CC3)c(Cl)cc2[nH]1,3.3,1,5.1,3.1,
OCc1cc([C@@H](O)CNCCCCCCOCCOCc2c(Cl)cccc2Cl)ccc1O,1.53,2.38,25.7,2.4,0.06
CC(=O)OC1=C2C(C)[C@@H](OC(=O)C(O)C(NC(=O)c3ccccc3)c3ccccc3)C[C@@](O)([C@@H](OC(=O)c3ccccc3)[C@@H]3[C@]4(OC(C)=O)CO[C@@H]4C[C@H](O)[C@@]3(C)C1=O)C2(C)C (stereo partly drawn),7.8,3,6.4,11,0.12

SMILES,MRT [h],Vd [L/kg],clearance [mL/min/kg],half-life [h],fraction unbound
CCc1[nH]c(=O)[nH]c1C(=O)c1ccncc1,1.2,0.65,9.03,1.32,
COc1cc2c(cc1OC)CN(CCc1ccc(NC(=O)c3cc(OC)c(OC)cc3NC(=O)c3cnc4ccccc4c3)cc1)CC2,38,6.4,2.8,29,
CN(C)CC/C=C1\c2ccccc2COc2ccccc21,15,12,14,15,
Cc1cccc([C@H](C)c2c[nH]cn2)c1C,2.5,1.6,11,2.2,0.06
Cc1c(CN(C)C(=O)C=Cc2cnc3c(c2)CCC(=O)N3)oc2ccccc12,8.4,0.43,0.9,6.4,
CC#CCn1c(N2CCC[C@@H](N)C2)nc2c1c(=O)n(Cc1nc(C)c3ccccc3n1)c(=O)n2C,140,16,1.9,129,
CCOc1ccc2ccccc2c1C(=O)NC1C(=O)N2C(C(=O)O)C(C)(C)S[C@H]12 (stereo partly drawn),1.1,0.22,3.3,0.7,0.13
CC[C@@H](CO)NC(=O)C1C=C2c3cccc4[nH]cc(c34)C[C@H]2N(C)C1 (stereo partly drawn),2.25,0.96,7.18,1.85,
C#C[C@]1(O)CC[C@H]2[C@@H]3CC=C4CC(=O)CCC4[C@H]3C(=C)C[C@@]21CC (stereo partly drawn),23.6,2.87,2,25,0.02
Nc1cc(N2CCCCC2)nc(N)[n+]1[O-],1.3,0.9,11.5,1.5,
CC(=O)OC1=C2C(C)[C@@H](OC(=O)C(O)C(NC(=O)OC(C)(C)C)c3ccccc3)C[C@@](O)([C@@H](OC(=O)c3ccccc3)[C@@H]3[C@]4(OC(C)=O)CO[C@@H]4C[C@@H]4C[C@@]43C1=O)C2(C)C (stereo partly drawn),26.1,17,10.8,33.9,
CCCc1cc(=O)[nH]c(=S)[nH]1,1.8,0.34,3.1,1.3,0.18
CNC(=O)c1ccccc1Sc1ccc2c(/C=C/c3ccccn3)n[nH]c2c1,,,5,4.3,0.004
CN(C)c1ccc(O)c2c1C[C@H]1C[C@H]3[C@H](N(C)C)C(O)=C(C(N)=O)C(=O)[C@@]3(O)C(O)=C1C2=O,,,,,0.005
COc1ccc(CC(C)(C)NC[C@H](O)c2cc(O)cc3c2OCC(=O)N3)cc1,22.2,15.8,12.4,22.1,0.4
C[n+]1ccccc1C=NO,1.5,0.8,9,1.4,1
CC(CN(C)C)CN1c2ccccc2CCc2ccccc21 (stereo not drawn),17,16,16,23,0.051
CCC#CC[C@H](C)[C@H](O)C#C[C@H]1[C@H]2CC(=CCOCCCC(=O)O)C[C@H]2C[C@H]1O,0.59,2.4,66.2,0.41,
O=C(CCCN1CC=C(n2c(=O)[nH]c3ccccc32)CC1)c1ccc(F)cc1,2.73,1.41,8.92,1.9,
CS(=O)(=O)c1ccc2c(c1)N(CCCN1CCC(C(N)=O)CC1)c1ccccc1S2,,,12.1,4,
Cc1ccc(N(CC2=NCCN2)c2cccc(O)c2)cc1,,,42,2.5,
